Literature values, collected in EP3735959A1, “COMPOSITIONS TO REDUCE HYPERPIGMENTATION” (InnovativeHealth Group SL, priority 2019, dated 2020).

System: human epidermal melanocytes

C=C(C)[C@@H]1CCC(C)=C[C@H]1c1c(O)cc(CCCCC)cc1O [CBD, Cannabidiol]
melanogenesis (6 µM, by increasing the expression of MITF (reference 6)): induced melanogenesis
cellular tyrosinase activity (human epidermal melanocytes, concentration dependent (reference 6)): significantly increased
